# Literature values as cited in US20020160936A1, “HCV E2 PROTEIN BINDING AGENTS FOR TREATMENT OF HEPATITIS C VIRUS INFECTION” (priority 1999, published 2002).
# System: hepatitis C virus
# Conditions: subjects with chronic hepatitis C
substance,measurement,value
interferon-alpha,long-term cure rate,less than 10%
